Test results as given in US20130143738A1, “HERBICIDAL COMPOSITION CONTAINING CERTAIN PYRIDINE CARBOXYLIC ACIDS AND (2,4-DICHLOROPHENOXY)ACETIC ACID” (DOW AGROSCIENCES LLC, priority 2011, published 2013).
Where two headings read alike, the source gives them in different places.

What was measured:
[1] = test system: MEOPA - escoba blanca (Melochia parviflora); test: Field evaluation of postemergence herbicidal activity of mixtures in range and pasture (Colombia); assay type: in vivo; conditions: 14 DAA
Method: Field trials were conducted in pastures in Colombia using standard herbicide small plot research methodology. Plot size was typical for small plot research, varying from 2 meters (m) wide by 6 m long. There were 4 replicates per treatment. Soil type ranged from medium to heavy soil texture. Perennial pastures were sown by hand direct dry seeding as per normal local cultural practices. The pastures were grown using normal cultural practices for fertilization and maintenance to ensure good growth of the pastures and the weeds.
Treatments were applied by backpack sprayer using either compressed air or carbon dioxide (CO2), at spray pressures from […]. Spray tips were typically Flat Fan Teejet nozzles, such as TJ8003. Spray volumes used were 400 liters per hectare (L/ha). MEOPA plant size at application varied from 70 to 80 centimeters (cm) tall active growth at flowering stage.
For each treatment, the appropriate formulated product amount to treat the plot area, to achieve the desired application rate, based on unit area of application (hectare), was calculated, measured, and mixed in water prior to applying with the backpack sprayer. Treatments were rated as compared to the untreated control plots. 2,4-D was used as Invesamina 480 SL®. Compound I was formulated as a 10% weight percent active ingredient (wt ai %—100 grams ai per L (g ai/L); 95.94 g ae/L) suspension concentrate (SC) of the corresponding methyl ester.
For both Example 1 and Example 2, the Colby equation was used to determine the herbicidal effects expected from the mixtures (Colby, S. R. Calculation of the synergistic and antagonistic response of herbicide combinations. Weeds 1967, 15, 20-22.).
The following equation was used to calculate the expected activity of mixtures containing two active ingredients, A and B:
A=observed efficacy of active ingredient A at the same concentration as used in the mixture.
B=observed efficacy of active ingredient B at the same concentration as used in the mixture.

[2] = test system: PANDI - fall panicum (Panicum dichotomiflorum Michx.); test: Greenhouse evaluation of postemergence herbicidal activity, foliar treatment, PANDI; assay type: in vivo; conditions: 16 DAA
From the text: (§1) Seeds or nutlets of the desired test plant species were planted in a soil matrix prepared by mixing a sandy loam soil (28.6 percent silt, 18.8 percent clay, and 52.6 percent sand, with a pH of about 5.8 and an organic matter content of about 1.8 percent) and calcareous grit in an 80 to 20 ratio. The soil matrix was contained in plastic pots with a surface area of 84.6 cm^2 and a volume of 560 cubic centimeters (cm^3). When required to ensure good germination and healthy plants, a fungicide treatment and/or other chemical or physical treatment was applied. The plants were grown for 7-31 days (d) in a greenhouse with an approximate 15 hour (h) photoperiod which was maintained at about 23-29° C. during the day and 22-28° C. during the night. Nutrients (Peters Excel® 15-5-15 5-Ca2-Mg) and water were added on a regular basis and supplemental lighting was provided with overhead metal halide 1000-Watt lamps as necessary. The plants were employed for testing when they reached the first, second, or third true leaf stage.
Treatment requirements were calculated based upon the rates being tested, the concentration of active ingredient or acid equivalent in the formulation, and a 12 mL application volume at a rate of 187 L/ha.
(§2) Treatments consisted of the potassium (K^+) salt of 4-amino-3-chloro-6-(4-chloro-2-fluoro-3-methoxy-phenyl)pyridine-2-carboxylic acid formulated as an SL or the benzyl ester of 4-amino-3-chloro-6-(4-chloro-2-fluoro-3-methoxy-phenyl)pyridine-2-carboxylic acid as technical material, and 2,4-D dimethylamine (DMA) salt applied as Weedar® 64 EC alone and in combination. Forms of the pyridine carboxylic acid and 2,4-D were applied on an acid equivalent basis.
(§3) For treatments comprised of formulated compounds, measured amounts of compounds were placed individually in 25 mL glass vials and diluted in a volume of 1.5% (v/v) Agri-dex® crop oil concentrated to obtain 6× stock solutions. […] Application solutions were prepared by adding an appropriate amount of each stock solution (typically 2 mL) and diluted to the appropriate final concentrations with the addition of an appropriate amount of an aqueous mixture of 1.5% (v/v) crop oil concentrate and an appropriate amount of water so that the final spray solutions contained 1.25+/−0.05% (v/v) crop oil concentrate.
For treatments comprised of formulated and technical compounds, weighed amounts of the technical materials were placed individually in 25 mL glass vials and dissolved in a volume of 97:3 v/v acetone/DMSO to obtain 6× stock solutions, and measured amounts of the formulated compounds were placed individually in 25 mL glass vials and diluted in a volume of 1.5% (v/v) crop oil concentrate to obtain 6× stock solutions. […]

[3] = test system: LOLMU - Italian ryegrass (Lolium perenne L. ssp. multiflorum (Lam.) Husnot); conditions: 14 DAA, greenhouse, foliar
Method: as §1, with “When required to ensure good germination and healthy plants, a fungicide treatment and/or other chemical or physical treatment was applied.” left out
as §2, §3
(§4) For treatments comprised of formulated and technical compounds, weighed amounts of the technical materials were placed individually in 25 mL glass vials and dissolved in a volume of 97:3 v/v acetone/DMSO to obtain 6× stock solutions, and measured amounts of the formulated compounds were placed individually in 25 mL glass vials and diluted in a volume of 1.5% (v/v) crop oil concentrate to obtain 6× stock solutions. […] Application solutions were prepared by adding an appropriate amount of each stock solution (eg, 2 mL) and diluted to the appropriate final concentrations with the addition of an appropriate amount of an aqueous mixture of 1.5% (v/v) crop oil concentrate and an appropriate amount of water so that the final spray solutions contained 1.25% (v/v) crop oil concentrate. The final acetone and DMSO concentrations of the application solutions containing technical material were 16.2% and 0.5%, respectively.
(§5) All stock solutions and applications solutions were visually inspected for compound compatibility prior to application. Compound requirements are based upon a 12 mL application volume at a rate of 187 liters per hectare (L/ha). Application solutions were applied to the plant material with an overhead Mandel track sprayer equipped with 8002E nozzles calibrated to deliver 187 L/ha over an application area of 0.503 square meters (m^2) at a spray height of 18 to 20 inches above the average plant canopy height. Control plants were sprayed in the same manner with the solvent blank.
(§6) The treated plants and control plants were placed in a greenhouse as described above and watered by sub-irrigation to prevent wash-off of the test compounds. After approximately 2 weeks, the condition of the test plants as compared with that of the untreated plants was determined visually and scored on a scale of 0 to 100 percent where 0 corresponds to no injury and 100 corresponds to complete kill.

[4] = test system: ELEIN - goosegrass (Eleusine indica (L.) Gaertn.); conditions: 14 DAA, greenhouse, foliar
Method: as §1, with “When required to ensure good germination and healthy plants, a fungicide treatment and/or other chemical or physical treatment was applied.” left out
as §2, §3, §4, §5, §6

[5] = potassium salt 3.75 g ae/ha alone
[6] = 2,4-D dimethyl amine 52.5 g ae/ha alone
[7] = 2,4-D dimethyl amine 105 g ae/ha alone

SMILES: O=C(O)COc1ccc(Cl)cc1Cl [2,4-D, (2,4-dichlorophenoxy)acetic acid]
- MEOPA (% Control) Obs ([1]; 2,4-D 480 g ae/ha alone): 3.8%

SMILES: COC(=O)c1nc(-c2ccc(Cl)c(OC)c2F)cc(N)c1Cl [Pyridine Carboxylic Acid (Methyl Ester), halauxifen-methyl]
- MEOPA (% Control) Obs ([1]; methyl ester 17.5 g ae/ha alone): 48.5%
- MEOPA (% Control) Obs ([1]; methyl ester 35 g ae/ha alone): 63.1%

SMILES: COc1c(Cl)ccc(-c2cc(N)c(Cl)c(C(=O)[O-])n2)c1F.[K+] [potassium (K^+) salt of 4-amino-3-chloro-6-(4-chloro-2-fluoro-3-methoxy-phenyl)pyridine-2-carboxylic acid]
- PANDI (% Control) Obs [2, 5]: 75%
- LOLMU (% Control) Obs [3, 5]: 15%
- LOLMU (% Control) Obs ([3]; potassium salt 7.5 g ae/ha alone): 35%

SMILES: CNC.O=C(O)COc1ccc(Cl)cc1Cl [2,4-D (Dimethyl Amine), 2,4-D dimethylamine (DMA) salt]
- PANDI (% Control) Obs [2, 6]: 0%
- PANDI (% Control) Obs [2, 7]: 0%
- PANDI (% Control) Obs ([2]; 2,4-D dimethyl amine 210 g ae/ha alone): 0%
- LOLMU (% Control) Obs [3, 6]: 0%
- LOLMU (% Control) Obs [3, 7]: 0%
- ELEIN (% Control) Obs [4, 6]: 0%
- ELEIN (% Control) Obs [4, 7]: 0%

SMILES: COc1c(Cl)ccc(-c2cc(N)c(Cl)c(C(=O)OCc3ccccc3)n2)c1F [Pyridine Carboxylic Acid (Benzyl Ester), benzyl ester of 4-amino-3-chloro-6-(4-chloro-2-fluoro-3-methoxy-phenyl)pyridine-2-carboxylic acid]
- ELEIN (% Control) Obs ([4]; benzyl ester 3.75 g ae/ha alone): 0%
- ELEIN (% Control) Obs ([4]; benzyl ester 7.5 g ae/ha alone): 25%
